In patent US9655887B2, “Pharmaceutical composition and the use thereof, and application regime of said pharmaceutical composition for on-demand contraception” (BAYER PHARMA AKTIENGESELLSCHAFT, priority 2013, dated 2017) one finds IC50 data, which are given here for 27 compounds.

pIC50: −log10 of the molar value. Where only a bound is given, the exact number is not on record here.

The test deals with EP2 subtype of the human PGE2 receptor (hEP2 receptor) (Homo sapiens, UniProt P43116). The experiment in a line: cAMP antagonism test, human prostaglandin E2 (subtype EP2) receptor signal. In kind it is cell-based. From the text:
1. Detection of Antagonism to the Human Prostaglandin E2 (Subtype EP2) Receptor Signal
The binding of PGE2 to the EP2 subtype of the human PGE2 receptor induces the activation of membrane-located adenylate cyclases and leads to the formation of cAMP. In the presence of the phosphodiesterase inhibitor IBMX, the cAMP accumulated owing to this stimulation and released by cell lysis is used in a competitive detection method. In this test, the cAMP present in the lysate competes with a fluorescence-labelled cAMP (cAMP-d2) for binding to an Eu cryptate-labelled anti-cAMP antibody.
In the absence of cellular cAMP, a maximal signal is produced, which is attributable to the binding of this cAMP-d2 molecule to the antibody. After excitation of the […] at 337 nm, there is a fluorescence resonance energy transfer (FRET) to the Eu cryptate molecules of the anti-cAMP antibody (labelled therewith), followed by a long-lasting emission signal at 665 nm (and at […]). Both signals are measured in a suitable measurement instrument with a time delay, i.e. after decay of the background fluorescence. Any increase in the low FRET signal caused by prostaglandin E2 administration (measured as well ratio change=emission665nm/emission620nm*10000) indicates the action of antagonists.
1.2.1. Test for Antagonism (Data Per Well of a 384-Well Plate):
To a test plate with the substance solutions already added (0.05 μl; 100% DMSO, concentration range from 0.8 nM-16.5 nM) were added 4 μl of a cAMP-d2/cell suspension (625000 cells/ml). After a 20-minute preincubation at room temperature (RT), 2 μl of a 3×PGE2 solution (1.5 nM, in PBS-IBMX) were added and incubated in the presence of the agonist for a further 60 mins at RT (volume: […]). Next the reaction was stopped by addition of 2 μl of lysis buffer and incubated for a further 20 mins at RT before the actual measurement (volume: ˜8 μl).

EP2 subtype of the human PGE2 receptor (hEP2 receptor), sequence (P43116 whole entry): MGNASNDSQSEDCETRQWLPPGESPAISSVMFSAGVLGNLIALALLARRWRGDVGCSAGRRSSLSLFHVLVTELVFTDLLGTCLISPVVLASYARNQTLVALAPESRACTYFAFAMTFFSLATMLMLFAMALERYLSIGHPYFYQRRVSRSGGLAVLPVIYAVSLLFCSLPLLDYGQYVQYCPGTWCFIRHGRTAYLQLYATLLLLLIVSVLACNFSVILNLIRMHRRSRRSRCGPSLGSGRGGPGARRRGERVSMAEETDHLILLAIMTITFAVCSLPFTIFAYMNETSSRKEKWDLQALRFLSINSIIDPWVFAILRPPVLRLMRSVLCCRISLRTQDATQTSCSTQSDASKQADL

Turning to `COCCNC(=O)c1ccc2nn(CC3CCN(C(=O)c4ccc(N5CCOCC5)cc4F)CC3)cc2c1C` [Example E51, 2-({1-[2-fluoro-4-[morpholin-4-yl)benzoyl]piperidin-4-yl}methyl)-N-(2-methoxyethyl)-4-methyl-2H-indazole-5-carboxamide], the negative logarithm of the IC50 (pIC50) was < 7.30.
In the case of `COCCNC(=O)c1ccc2nn(CC3CCN(C(=O)c4ccc(Br)cc4)CC3)cc2c1C` [Example E52, 2-{[1-(4-bromobenzoyl)piperidin-4-yl]methyl}-N-(2-methoxyethyl)-4-methyl-2H-indazole-5-carboxamide], the pIC50 is < 7.30.
As to `COCCNC(=O)c1ccc2nn(CC3CCN(C(=O)c4ccc(OC(F)(F)F)cc4)CC3)cc2c1C` [Example E53, N-(2-methoxyethyl)-4-methyl-2-({1-[4-(trifluoromethoxy)benzoyl]piperidin-4-yl}-methyl)-2H-indazole-5-carboxamide], the pIC50 was < 7.30.
For the compound `COCCNC(=O)c1ccc2nn(CC3CCN(C(=O)c4ccc(Cl)cc4)CC3)cc2c1C` [Example E54, 2-{[1-(4-chlorobenzoyl)piperidin-4-yl]methyl}-N-(2-methoxyethyl)-4-methyl-2H-indazole-5-carboxamide], the pIC50 was < 7.30.
For the compound `COCCNC(=O)c1ccc2nn(CC3CCN(C(=O)c4ccc(SC(F)(F)F)cc4)CC3)cc2c1C` [Example E55, N-(2-methoxyethyl)-4-methyl-2-[(1-{4-[(trifluoromethyl)sulphanyl]benzoyl}piperidin-4-yl)methyl]-2H-indazole-5-carboxamide], the pIC50 is < 7.30.
The figure for `Cc1c(C(=O)NCCOCC2CC2)ccc2nn(CC3CCN(C(=O)c4ccc(Cl)cc4)CC3)cc12` [Example E59, 2-{[1-(4-chlorobenzoyl)piperidin-4-yl]methyl}-N-[2-(cyclopropylmethoxy)ethyl]-4-methyl-2H-indazole-5-carboxamide] is < 7.30; for `Cc1ccc(C(=O)N2CCC(Cn3cc4c(C)c(C(=O)NCCOCC5CC5)ccc4n3)CC2)cc1` [Example E60, N-[2-(cyclopropylmethoxy)ethyl]-4-methyl-2-{[1-(4-methylbenzoyl)piperidin-4-yl]-methyl}-2H-indazole-5-carboxamide] it is < 7.30; for `Cc1c(C(=O)NCCOCC2CC2)ccc2nn(CC3CCN(C(=O)c4ccc(Oc5ccc(F)cc5)cc4)CC3)cc12` [Example E61, N-[2-(cyclopropylmethoxy)ethyl]-2-({1-[4-(4-fluorophenoxy)benzoyl]piperidin-4-yl}-methyl)-4-methyl-2H-indazole-5-carboxamide] it is < 7.30.
Turning to `Cc1c(C(=O)NCCOCC2CC2)ccc2nn(CC3CCN(C(=O)c4ccc(C(F)(F)F)cc4)CC3)cc12` [Example E62, N-[2-(cyclopropylmethoxy)ethyl]-4-methyl-2-({1-[4-(trifluoromethyl)benzoyl]piperidin-4-yl}methyl)-2H-indazole-5-carboxamide], the pIC50 is < 7.30.
As for `Cc1c(C(=O)NCCOCC2CC2)ccc2nn(CC3CCN(C(=O)c4ccc(-c5ccc(F)cc5)cc4)CC3)cc12` [Example E63, N-[2-(cyclopropylmethoxy)ethyl]-2-({1-[(4′-fluorobiphenyl-4-yl)carbonyl]piperidin-4-yl}methyl)-4-methyl-2H-indazole-5-carboxamide], the figure is < 7.30.
On to `Cc1c(C(=O)NCCOCC2CC2)ccc2nn(CC3CCN(C(=O)c4ccc(C5CC5)cc4)CC3)cc12` [Example E64, 2-{[1-(4-cyclopropylbenzoyl)piperidin-4-yl]methyl}-N-[2-(cyclopropylmethoxy)ethyl]-4-methyl-2H-indazole-5-carboxamide], for which the pIC50 was < 7.30.
`Cc1c(C(=O)NCCOCC(F)(F)F)ccc2nn(CC3CCN(C(=O)c4ccc(Cl)cc4)CC3)cc12` [Example E65, 2-{[1-(4-chlorobenzoyl)piperidin-4-yl]methyl}-4-methyl-N-[2-(2,2,2-trifluoroethoxy)-ethyl]-2H-indazole-5-carboxamide]: the pIC50 is < 7.30.
As to `Cc1ccc(C(=O)N2CCC(Cn3cc4c(C)c(C(=O)NCCOCC(F)(F)F)ccc4n3)CC2)cc1` [Example E66, 4-methyl-2-{[1-(4-methylbenzoyl)piperidin-4-yl]methyl}-N-[2-(2,2,2-trifluoroethoxy)-ethyl]-2H-indazole-5-carboxamide], the pIC50 was < 7.30.
As for `Cc1c(C(=O)NCCOCC(F)(F)F)ccc2nn(CC3CCN(C(=O)c4ccc(Oc5ccc(F)cc5)cc4)CC3)cc12` [Example E67], the figure is < 7.30; as for `Cc1c(C(=O)NCCOCC(F)(F)F)ccc2nn(CC3CCN(C(=O)c4ccc(C(F)(F)F)cc4)CC3)cc12` [Example E68, 4-methyl-N-[2-(2,2,2-trifluoroethoxy)ethyl]-2-({1-[4-(trifluoromethyl)benzoyl]-piperidin-4-yl}methyl)-2H-indazole-5-carboxamide], < 7.30.
On to `Cc1c(C(=O)NCCOCC(F)(F)F)ccc2nn(CC3CCN(C(=O)c4ccc(-c5ccc(F)cc5)cc4)CC3)cc12` [Example E69, 2-({1-[(4′-fluorobiphenyl-4-yl)carbonyl]piperidin-4-yl}methyl)-4-methyl-N-[2-(2,2,2-trifluoroethoxy)ethyl]-2H-indazole-5-carboxamide], for which the pIC50 was < 7.30.
On to `Cc1c(C(=O)NCCOCC(F)(F)F)ccc2nn(CC3CCN(C(=O)c4ccc(C5CC5)cc4)CC3)cc12` [Example E70, 2-{[1-(4-cyclopropylbenzoyl)piperidin-4-yl]methyl}-4-methyl-N-[2-(2,2,2-trifluoro-ethoxy)ethyl]-2H-indazole-5-carboxamide], for which the pIC50 was < 7.30.
On to `Cc1c(C(=O)NCCOC(C)C)ccc2nn(CC3CCN(C(=O)c4ccc(Cl)cc4)CC3)cc12` [Example E71, 2-{[1-(4-chlorobenzoyl)piperidin-4-yl]methyl}-N-(2-isopropoxyethyl)-4-methyl-2H-indazole-5-carboxamide], for which the pIC50 is < 7.30.
On to `Cc1ccc(C(=O)N2CCC(Cn3cc4c(C)c(C(=O)NCCOC(C)C)ccc4n3)CC2)cc1` [Example E72, N-(2-isopropoxyethyl)-4-methyl-2-{[1-(4-methylbenzoyl)piperidin-4-yl]methyl}-2H-indazole-5-carboxamide], for which the negative-log IC50 (pIC50) was < 7.30.
Regarding `Cc1c(C(=O)NCCOC(C)C)ccc2nn(CC3CCN(C(=O)c4ccc(Oc5ccc(F)cc5)cc4)CC3)cc12` [Example E73, 2-({1-[4-(4-fluorophenoxy)benzoyl]piperidin-4-yl}methyl)-N-(2-isopropoxyethyl)-4-methyl-2H-indazole-5-carboxamide], the pIC50 is < 7.30.
As for `Cc1c(C(=O)NCCOC(C)C)ccc2nn(CC3CCN(C(=O)c4ccc(C(F)(F)F)cc4)CC3)cc12` [Example E74, N-(2-isopropoxyethyl)-4-methyl-2-({1-[4-(trifluoromethyl)benzoyl]piperidin-4-yl}-methyl)-2H-indazole-5-carboxamide], the pIC50 was < 7.30.
`Cc1c(C(=O)NCCOC(C)C)ccc2nn(CC3CCN(C(=O)c4ccc(-c5ccc(F)cc5)cc4)CC3)cc12` [Example E75, 2-({1-[(4′-fluorobiphenyl-4-yl)carbonyl]piperidin-4-yl}methyl)-N-(2-isopropoxyethyl)-4-methyl-2H-indazole-5-carboxamide]: the pIC50 is < 7.30.
As for `Cc1c(C(=O)NCCOC(C)C)ccc2nn(CC3CCN(C(=O)c4ccc(C5CC5)cc4)CC3)cc12` [Example E76, 2-{[1-(4-cyclopropylbenzoyl)piperidin-4-yl]methyl}-N-(2-isopropoxyethyl)-4-methyl-2H-indazole-5-carboxamide], the pIC50 is < 7.30.
Turning to `Cc1c(C(=O)NCCOC(F)(F)F)ccc2nn(CC3CCN(C(=O)c4ccc(Cl)cc4)CC3)cc12` [Example E77, 2-{[1-(4-chlorobenzoyl)piperidin-4-yl]methyl}-4-methyl-N-[2-(trifluoromethoxy)ethyl]-2H-indazole-5-carboxamide], the pIC50 was < 7.30.
As to `Cc1c(C(=O)NCCOC(F)(F)F)ccc2nn(CC3CCN(C(=O)c4ccc(Oc5ccc(F)cc5)cc4)CC3)cc12` [Example E78, 2-({1-[4-(4-fluorophenoxy)benzoyl]piperidin-4-yl}methyl)-4-methyl-N-[2-(trifluoro-methoxy)ethyl]-2H-indazole-5-carboxamide], the pIC50 is < 7.30.
For the compound `Cc1c(C(=O)NCCOC(F)(F)F)ccc2nn(CC3CCN(C(=O)c4ccc(-c5ccc(F)cc5)cc4)CC3)cc12` [Example E79, 2-({1-[(4′-fluorobiphenyl-4-yl)carbonyl]piperidin-4-yl}methyl)-4-methyl-N-[2-(trifluoromethoxy)ethyl]-2H-indazole-5-carboxamide], the pIC50 was < 7.30.
The figure for `Cc1c(C(=O)NCCOC(F)(F)F)ccc2nn(CC3CCN(C(=O)c4ccc(Oc5ccc(C(F)(F)F)cc5)cc4)CC3)cc12` [Example E80, 4-methyl-N-[2-(trifluoromethoxy)ethyl]-2-[(1-{4-[4-(trifluoromethyl)phenoxy]-benzoyl}piperidin-4-yl)methyl]-2H-indazole-5-carboxamide] is < 7.30.
